The text below walks through data of PMC6661809, “Lead optimization for promising monoamine oxidase inhibitor from eugenol for the treatment of neurological disorder: synthesis and in silico based study” (BMC Chemistry, 2019).

The target in data set [1] is rat MAO-A. The following applies: mitochondrial rat brain; cited from earlier work.
For data set [2], the target named is rat MAO-B. The settings on record: mitochondrial rat brain; cited from earlier work.
Data set [3] has as its system rat MAO-A. Details: method as in PMID 28771213. The following applies: Table 1, literature overview; cited from earlier work.
In data set [4] the test system is rat MAO-B. Details: method as in PMID 28771213. The following applies: Table 1, literature overview; cited from earlier work.
The subject of a further data set is Swiss mouse. Set-up: method as in PMID 28771213. The settings on record: controls negative and positive (imipramine); cited from earlier work.
In another data set the target is T1, hMAO-A (Homo sapiens, UniProt P21397).
T1 construct: purchased Sigma-Aldrich; host or cells: insect cells (BTI-TN-5B14) infected with recombinant baculovirus
T1 sequence (P21397 1-527): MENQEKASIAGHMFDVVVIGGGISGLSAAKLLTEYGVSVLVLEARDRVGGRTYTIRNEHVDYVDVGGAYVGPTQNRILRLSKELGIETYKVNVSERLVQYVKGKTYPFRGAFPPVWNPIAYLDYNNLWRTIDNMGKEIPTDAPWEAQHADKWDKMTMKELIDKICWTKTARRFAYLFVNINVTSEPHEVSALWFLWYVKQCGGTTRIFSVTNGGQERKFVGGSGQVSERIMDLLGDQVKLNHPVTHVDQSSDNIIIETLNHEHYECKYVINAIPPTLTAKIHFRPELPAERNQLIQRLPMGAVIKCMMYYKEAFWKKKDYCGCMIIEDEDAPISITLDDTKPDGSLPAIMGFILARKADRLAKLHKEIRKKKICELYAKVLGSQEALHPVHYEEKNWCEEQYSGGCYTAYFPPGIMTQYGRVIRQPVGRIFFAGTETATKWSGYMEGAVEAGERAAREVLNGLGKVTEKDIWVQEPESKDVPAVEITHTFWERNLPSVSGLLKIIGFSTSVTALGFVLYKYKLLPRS
Kind of data set: Recombinant human MAO-A inhibition screening (Amplex Red, p-tyramine). Format: biochemical. The following applies: for Selectivity index: IC50 (MAO-A)/IC50 (MAO-B); for IC50: recombinant hMAO-A, p-tyramine substrate, mean SEM. An excerpt: (§1) To evaluate IC50 values for the inhibition of human MAO-A and MAO-B by newly synthesized compounds the commercially available recombinant human enzymes expressed in insect cells were used (Sigma-Aldrich). The MAO inhibition assay was based on the method described by Anderson et al., 1993 and Chimenti et al. with some modifications. The Amplex Red MAO Kit tyramine (Sigma-Aldrich) affords a suitable fluorimetric method to evaluate MAO enzyme action of synthetic and natural compounds. In the assay, MAO reacts with p-tyramine, a common substrate for both MAO isoforms, ensuing in the production of H2O2, which is identified by a fluorimetric method (λex = 530/λem = 585 nm). Each test well contained 0.1 mL of sodium phosphate buffer (0.05 M, pH 7.4), a range of concentrations of the eugenol based derivatives or reference compounds along with recombinant hMAO-A or hMAO-B in appropriate quantity. After the preparation of this mixture the wells were subjected to incubation for 15 min at 37 °C, placed in the dark fluorimeter chamber. Once this incubation period over, the process was rendered by mixing 200 µM Amplex Red reagent (Sigma-Aldrich), 1 U/mL horseradish peroxidase (Sigma-Aldrich) and p-tyramine (Sigma-Aldrich). Subsequently, the formation of hydrogen peroxide exerted by MAO isoforms was quantified by using Amplex-Red reagent, a non-fluorescent probe that reacts with H2O2 in the existence of horse radish peroxidase to generate the fluorescent component resorufin. Moreover, the control analysis was calculated in the absence of compound and reference inhibitors. The probability of compounds to change the fluorescence produced in the reaction mix due to non-enzymatic inhibition was assessed by mixing titled compounds to solutions of single Amplex Red reagent in a sodium phosphate buffer. Data were processed in Microsoft Excel, to calculate IC50 values.

Data set [5] has as its target T2, hMAO-B (Homo sapiens, UniProt P27338).
T2 construct: purchased Sigma-Aldrich; host or cells: insect cells (BTI-TN-5B14) infected with recombinant baculovirus
T2 sequence (P27338 1-520): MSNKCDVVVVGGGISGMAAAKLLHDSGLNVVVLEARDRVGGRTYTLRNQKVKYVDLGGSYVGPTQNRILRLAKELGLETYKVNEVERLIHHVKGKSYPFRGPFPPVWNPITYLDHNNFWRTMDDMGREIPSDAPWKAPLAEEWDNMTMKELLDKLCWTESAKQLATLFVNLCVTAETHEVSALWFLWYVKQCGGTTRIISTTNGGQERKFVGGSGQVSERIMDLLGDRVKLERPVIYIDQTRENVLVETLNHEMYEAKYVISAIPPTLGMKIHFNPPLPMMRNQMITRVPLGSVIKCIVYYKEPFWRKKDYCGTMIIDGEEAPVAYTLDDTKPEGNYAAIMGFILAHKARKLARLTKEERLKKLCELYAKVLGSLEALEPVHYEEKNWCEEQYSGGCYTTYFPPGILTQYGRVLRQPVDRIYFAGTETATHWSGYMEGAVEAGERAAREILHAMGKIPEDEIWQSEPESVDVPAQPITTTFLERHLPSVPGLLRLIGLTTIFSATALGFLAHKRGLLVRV
The experiment in a line: Recombinant human MAO-B inhibition screening (Amplex Red, p-tyramine). The data set is classed as biochemical. The following applies: p-tyramine substrate, mean SEM.
Source text: as §1

A short description of another data set: DPPH scavenging activity. The settings on record: Table 6, mean ± SEM, n = 3. The protocol:
Solutions of synthesized compounds were set in ethanol/water (1:1) having 10 mM to 100 mM at a period of 10 mM. The 0.01% DPPH· stock solution was prepared in ethanol/water (1:1). Samples were prepared as 5 mL DPPH· solution was mixed with 5 mL L-ascorbic acid solution then shaken vigorously and kept in the dark. Corresponding blank sample were prepared and L-ascorbic acid was used as reference standard. […] The actual decrease in absorption induced by the test was compared with the positive controls. The IC50 values were calculated use the dose inhibition curve in linear range by plotting the extract concentration versus the corresponding scavenging effect through following equation [(ADR − APR)/AO] × 100. Where ADR is the absorbance prior to reaction and APR is the absorbance after reaction with DPPH·.

Data set [6] can be described thus: Hydrogen peroxide scavenging (H2O2) assay. The settings on record: Table 7, mean ± SEM, n = 3. The protocol: Hydrogen peroxide generally turns into water and oxygen and produces highly toxic hydroxyl radical that renders the damage to DNA and peroxidation of lipid. H2O2 scavenging ability of eugenol based derivatives was evaluated by method described by Nakano and colleagues with some alteration. The hydrogen peroxide solution (40 mM) was prepared in phosphate buffer (40 mM pH 7.4) and addition of several ranges of synthesized derivatives (05–80 μg/mL) was done into H2O2 solution (2 mL). The determination of H2O2 concentration was done by UV/Vis Epoch ELISA reader at 230 nm upon incubation of 10 min. Solution of phosphate buffer without H2O2 was noted as blank reading. The hydrogen peroxide percentage inhibition was estimated through the formula [(AH − AD)/AO] × 100, where AH is the absorbance of the control and AD is the absorbance of compounds/reference taken as 05–80 μg/mL L-ascorbic acid.

The nature of data set [7]: Nitric oxide scavenging activity. The settings on record: Table 8, mean ± SEM, n = 3. The source says: The generation of nitric oxide (NO·) on biological tissues is mediated by particular nitric oxide synthases enzyme that control the catabolism of the arginine to citrulline via creation of NO through a five electron oxidative reaction. At the physiological pH (7.2) in aqueous solution sodium nitroprusside decompose to produce NO·. Finally, NO· reacts with oxygen at underaerobic conditions and produces stable products (nitrate and nitrite), this amount can be determined by means of Griess reagent. The procedure for the nitric oxide scavenging activity was adopted from reports of Alam et al..

The nature of data set [8]: Ferric reducing antioxidant power (FRAP) assay.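 Also: Ferrous-TPTZ reduction read as absorbance at 593 nm.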 The settings on record: Table 9, mean ± SEM, n = 3. The protocol: The capacity of antioxidants to decrease ferric iron is measured by this method. The reaction of […] (TPTZ) and complex ferric iron yields ferrous form at low pH. […] This method was adopted from the reports of Benzie et al..

The target of the next data set is human MAO-A. Set-up: method as in PMID 21190052. The settings on record: competitive inhibitor; cited from earlier work.
The next data set addresses MAO B. Details: method as in PMID 21190052. The following applies: cited from earlier work.
The target of data set [9] is T2, hMAO-B. The following applies: eugenol from Rhizoma acori graminei; cited from earlier work.
The test system of data set [10] is mice. Set-up: method as in PMID 28771213. The settings on record: cited from earlier work.
Data set [11] relates to mice. Set-up: method as in PMID 28771213. The following applies: repeated administration, dose-dependent; cited from earlier work.
The subject of data set [12] is mice. Details: method as in PMID 21190052. The following applies: administered for 14 days; cited from earlier work.

As to `C=CCc1ccc(O)c(-c2ccc(O)c(CC=C)c2)c1` [Honokiol], the Ki on rat MAO-A [1] is 38.2 µM; at rat MAO-B [2] it was 54.6 µM.

As for `COc1ccc(C(C)=O)c(O)c1` [Paeonol], the Ki on rat MAO-A [1] is 51.1 µM; at rat MAO-B [2] it was 54.6 µM.

Take `COc1cc(C=O)ccc1O` [Vanillin]: the values for the 50% inhibitory concentration (IC50) in the data set on rat MAO-A [3] and in the data set with rat MAO-B [4] were 17.88 ± 0.16 µM and 45.34 ± 0.09 µM, respectively. In addition, the “Observations in behavioral test (FST)” value in the data set with Swiss mouse is “Controls: negative and positive (imipramine) The treatment reduced the spontaneous locomotion”.

In the case of `C=CCc1ccc(O)c(OC)c1` [Eugenol], the Selectivity index on hMAO-A is reported as 1.24. The 50% inhibitory concentration (IC50) is 16.54 ± 0.045 µM at hMAO-A, 13.3 ± 0.037 µM on hMAO-B [5], 5.34 ± 0.065 µM in the data set on rat MAO-A [3] and 24 ± 1.32 µM in the data set with rat MAO-B [4]. Also, the “DPPH scavenging IC50” value in “DPPH scavenging activity” is recorded as 10.29 ± 0.011 µg/mL. In addition, in data set [6], the “H2O2 scavenging IC50” value was found to be 9.980 ± 0.012 µg/mL. Moreover, the “Nitric oxide scavenging IC50” value in data set [7] is reported as 11.724 ± 0.003 µg/mL. Besides, the “FRAP IC50” value in data set [8] is 10.627 ± 0.082 µg/mL. The Ki is 25.7 µM on rat MAO-A [1]; 79.9 µM at rat MAO-B [2]; 25 µM on human MAO-A; 211 µM on MAO B; 15 µM on hMAO-B [9]. The 50% lethal dose (LD50) with mice [10] is 4500 mg/kg. For the same compound, in the data set with mice [11], the “Immobility in the FST and tail suspension test (TST)” value is listed as “decreased immobility”. In addition, the “Forced swim test (FST) score” value with mice [12] is “significantly increased”.

For the compound `C=CCc1ccc(OC)c(OC)c1` [Methyl-eugenol], the half-inhibitory concentration (IC50) with rat MAO-A [3] is 7.12 ± 0.46 µM; in the data set on rat MAO-B [4] it was 43.23 ± 0.054 µM.

In the case of `CC1CCC(C(C)C)C(O)C1` (stereo not drawn) [Menthol], the IC50 was 23.1 ± 0.35 µM with rat MAO-A [3] and 37.4 ± 0.76 µM in the data set with rat MAO-B [4].

For `C=CCc1ccc(OC(=O)c2ccccc2S)c(OC)c1` [Compound 13d, 4-allyl-2-methoxyphenyl 2-mercaptobenzoate], the melting point fell in the range of 182 to 184 °C. Also, on hMAO-A, the Selectivity index is listed as 1.49 and the concentration for half-maximal inhibition (IC50) worked out at 20.89 ± 0.023 µM. Moreover, the concentration for half-maximal inhibition (IC50) at hMAO-B [5] came out at 13.95 ± 0.005 µM. The “DPPH scavenging IC50” value in the data set “DPPH scavenging activity” amounted to 14.88 ± 0.018 µg/mL. Moreover, in data set [6], the “H2O2 scavenging IC50” value came out at 14.4 ± 0.143 µg/mL. For the same compound, in data set [7], the “Nitric oxide scavenging IC50” value came out at 11.23 ± 0.032 µg/mL. The “FRAP IC50” value in [8] is given as 12.45 ± 0.017 µg/mL.

On to `Cc1ccc(C(C)C)cc1O` [Carvacrol], for which the 50% inhibitory concentration (IC50) in the data set on rat MAO-A [3] was 15.6 ± 0.49 µM; with rat MAO-B [4], 23.42 ± 0.04 µM.

Regarding `C=CCc1ccc(O)c(-c2cc(CC=C)ccc2O)c1` [Magnolol], the inhibitory constant (Ki) was 35.4 µM on rat MAO-A [1] and 49.3 µM at rat MAO-B [2].

Take `C=CCc1ccc(OC(=O)c2ccccc2O)c(OC)c1` [Compound 13c, 4-allyl-2-methoxyphenyl 2-hydroxybenzoate]: the melting point lay in the range of 157 to 159 °C. In addition, at hMAO-A, the Selectivity index came out at 1.76 and the 50% inhibitory concentration (IC50) is 22.38 ± 0.067 µM. For the same compound, the IC50 on hMAO-B [5] turned out to be 12.66 ± 0.021 µM. Besides, in the data set “DPPH scavenging activity”, the “DPPH scavenging IC50” value was determined as 16.04 ± 0.026 µg/mL. Further, in data set [6], the “H2O2 scavenging IC50” value came out at 15.7 ± 0.784 µg/mL. In addition, in [7], the “Nitric oxide scavenging IC50” value came to 14.63 ± 0.412 µg/mL. The “FRAP IC50” value in data set [8] is given as 14.63 ± 0.007 µg/mL.
